Reference: patent US20210038628A1, “NANOPARTICLE COMPOSITIONS” (JANUARY THERAPEUTICS, INC., priority 2018, published 2021)
Structures can show the parent of a compound that is named as a salt.

System: BxPC-3 (pancreatic adenocarcinoma) cell line
Assay: Cellular proliferation assay in BxPC-3 cells (Cell-Titer Glo)
Assay type: cell-based
Settings: Homo sapiens, 120 hours incubation, Cell-Titer Glo luminescence
Protocol: Compounds are tested for their ability to impair cancer cell proliferation and/or induce cell death. For cellular proliferation studies, cultured cells are treated with the test compound for 24-120 hours. After compound treatment, cell proliferation is assessed by using methods including, but not limited to, Cell-Titer-Glo® (Promega), Alamar Blue, LIVE/DEAD® (ThermoFisher), BrdU incorporation, and live-cell imaging. The cancer lines used include, but are not limited to BxPC-3 (pancreatic cancer). Gemcitabine Hydrochloride serves as a control for activity.
BxPC-3 (pancreatic adenocarcinoma) cell line was purchased from the American Type Culture Collection (Catalog #CRL-1687) and grown in RPMI-1640 medium (e.g. Corning #10-040-CV) with 10% Heat Inactivated Fetal Calf Serum at 37° C. and 5% CO2 (as recommended by the ATCC).
Cultures were grown in […] plates to 80% confluence, and cells were trypsinized to a single-cell suspension. Cells were then resuspended in growth medium to a density of […]. They were then plated into 96-well assay plates (Corning #3917) in a volume of 100 ul/well (2,500 cells/well). Cells were allowed to adhere to plates for 24 h at 37° C. and 5% CO2). Compounds were then added to the wells using an […] serial dilution scheme (over 9 dilutions, generally ranging from 30 μM-30 pM), and the cells were incubated for an additional 120 hours. After 120 h, 90 ul of Cell-Titer Glo reagent (Promega #G7572) was added, and the plates were read using a luminescence counter (e.g., BioTek Synergy HTX at 100 ms read time).

SMILES | EC50 [nM]
CCCCCCCCCCCCCCCCCCC(=O)O[C@@H]1[C@@H](COP2(=O)OCc3ccccc3O2)O[C@@H](n2ccc(N)nc2=O)C1(F)F (stereo partly drawn) [Compound 16, (2R,3R,5R)-5-(4-amino-2-oxopyrimidin-1(2H)-yl)-4,4-difluoro-2-(((2-oxido-4H-benzo[d][1,3,2]dioxaphosphinin-2-yl)oxy)methyl)tetrahydrofuran-3-yl Nonadecanoate] | < 1
CCCCCCCCCCCCC(=O)O[C@@H]1[C@@H](COP(=O)(OCOC(=O)CC(C)(C)C)OCOC(=O)CC(C)(C)C)O[C@@H](n2ccc(N)nc2=O)C1(F)F [Compound 17] | 1 to 10
CCCCCCCCCCCCCCC(=O)OC1[C@@H](COP(=O)(OCOC(=O)CC(C)(C)C)OCOC(=O)CC(C)(C)C)O[C@@H](n2ccc(N)nc2=O)C1(F)F (stereo partly shown) [Compound 27] | < 1
Nc1ccn([C@@H]2O[C@H](CO)[C@@H](O)C2(F)F)c(=O)n1 [Gemcitabine Hydrochloride, reference compound] | 1 to 10
